Test: in vitro study of vegetable oil, water and cyclodextrin: band of wax-like complex
Type: physicochemical
Details: vegetable oil 4 g, water 6 g, varying amounts of cyclodextrin (100-2,000 mg), centrifuged
Description: FIG. 9A-9C depicts the results of an in vitro study of vegetable oil (4 g), water (6 g) (with added food coloring for contrast) and varying amounts of (A) α-cyclodextrin (100-2,000 mg, right to left), (B) β-cyclodextrin or (C) γ-cyclodextrin. A band of “wax-like” material layered between the oil and aqueous phases is apparent in the tubes. […] Note the increasing size (right to left) of a white layer of un-reacted α-cyclodextrin in the bottom of the tubes. This material is displaced from solution by either the oil or the α-cyclodextrin-oil complex. These tubes were centrifuged in order to improve the definition of the layers. The “wax-like” complex is of such a consistency that all of the tubes except for the furthest two to the right can be inverted without leakage of the aqueous phase around the complex.
FIGS. 9A-9C depict the results of an in vitro study of vegetable oil (4 g), water (6 g) (with added food coloring for contrast) and varying amounts of (A) α-cyclodextrin (100-2,000 mg, right to left), (B) β-cyclodextrin or (C) γ-cyclodextrin. A band of “wax-like” material layered between the oil and aqueous phases is apparent in the tubes. […] Note the increasing size (right to left) of a white layer of un-reacted α-cyclodextrin in the bottom of the tubes. This material is displaced from solution by either the oil or the α-cyclodextrin-oil complex. These tubes were centrifuged in order to improve the definition of the layers. The “wax-like” complex is of such a consistency that all of the tubes in 9A except for the furthest two to the right can be inverted without leakage of the aqueous phase around the complex.
Thus one would not have expected α-cyclodextrin to complex triglyceride molecules because the molecules would not fit within the pore of the α α-cyclodextrin. […] The white substance in the bottom of the tubes is precipitated cyclodextrin.

band of wax-like material (complexed fat) between oil and aqueous phases	Compound
bearly noticeable	OC[C@H]1O[C@@H]2O[C@H]3[C@H](O)[C@@H](O)[C@@H](O[C@H]4[C@H](O)[C@@H](O)[C@@H](O[C@H]5[C@H](O)[C@@H](O)[C@@H](O[C@H]6[C@H](O)[C@@H](O)[C@@H](O[C@H]7[C@H](O)[C@@H](O)[C@@H](O[C@H]8[C@H](O)[C@@H](O)[C@@H](O[C@H]9[C@H](O)[C@@H](O)[C@@H](O[C@H]1[C@H](O)[C@H]2O)O[C@@H]9CO)O[C@@H]8CO)O[C@@H]7CO)O[C@@H]6CO)O[C@@H]5CO)O[C@@H]4CO)O[C@@H]3CO [γ-cyclodextrin]
significantly less	OC[C@H]1O[C@@H]2O[C@H]3[C@H](O)[C@@H](O)[C@@H](O[C@H]4[C@H](O)[C@@H](O)[C@@H](O[C@H]5[C@H](O)[C@@H](O)[C@@H](O[C@H]6[C@H](O)[C@@H](O)[C@@H](O[C@H]7[C@H](O)[C@@H](O)[C@@H](O[C@H]8[C@H](O)[C@@H](O)[C@@H](O[C@H]1[C@H](O)[C@H]2O)O[C@@H]8CO)O[C@@H]7CO)O[C@@H]6CO)O[C@@H]5CO)O[C@@H]4CO)O[C@@H]3CO [β-cyclodextrin]

Source: patent publication US9326539B2, “Compositions comprising dietary fat complexers and methods for their use” (Soho Flordis International Pty. Ltd., priority 2002, dated 2016)
